Source: patent publication US9321722B2, “Bis-indolic derivatives, their uses in particular as antibacterials” (UNIVERSITE JOSEPH FOURIER, priority 2011, dated 2016)

Experiments:
[1] = system: S. aureus ATCC 106414 (VISA); experiment: MIC microdilution (Table I-1); assay type: cell-based, Staphylococcus aureus; settings: Staphylococcus aureus, read after 18 hours, read-out: MIC
Procedure: (§1) The microdilution method recommended by the Clinical and Laboratory Standard Institute [M07-A8, Vol. 29, N^o 2] was used. The activity of indolic compounds was tested against 29 bacterial strains belonging to 17 different species and 12 different genera (Staphylococcus, Streptococcus, Enterococcus, Listeria, Bacillus, Haemophilus, Escherichia, Klebsiella, Enterobacter, Serratia, Pseudomonas, and Acinetobacter). Bacterial inocula were prepared in Mueller Hinton broth (MH2, bioMerieux, Marcy L'Etoile, France), supplemented with 10% sheep blood for fastidious species (i.e., Streptococcus pneumoniae and Haemophilus influenzae). They were dispensed in 96 well microtiter plates (5×10^5 CFU/ml of final inoculum). Indolic compounds were added to the wells as to obtain two-fold serial concentrations (0.50-128 mg/L of final concentrations). Plates were incubated at 37° C. in ambient air, or at 37° C. in 5% CO2 enriched atmosphere for fastidious species. […] Drug-free cultures served as growth controls. Cultures receiving gentamicin, ciprofloxacin or cefotaxime served as positive controls.

S. aureus ATCC 29213 = experiment: MIC microdilution (Table I-1); assay type: cell-based, Staphylococcus aureus; settings: Staphylococcus aureus, ATCC29213, read after 18 hours, read-out: MIC
Procedure: as §1

[2] = system: S. aureus ATCC 33592 (MRSA); experiment: MIC microdilution (Table I-1); assay type: cell-based, Staphylococcus aureus; settings: Staphylococcus aureus, read after 18 hours, read-out: MIC
Procedure: as §1

S. aureus ATCC 6538 = experiment: MIC microdilution (Table I-1); assay type: cell-based, Staphylococcus aureus; settings: Staphylococcus aureus, ATCC6538, read after 18 hours, read-out: MIC
Procedure: as §1

S. aureus ATCC 9144 = experiment: MIC microdilution (Table I-1); assay type: cell-based, Staphylococcus aureus; settings: Staphylococcus aureus, ATCC9144, read after 18 hours, read-out: MIC
Procedure: as §1

S. aureus CIP 103428 = experiment: MIC microdilution (Table I-1); assay type: cell-based, Staphylococcus aureus; settings: Staphylococcus aureus, CIP103428, read after 18 hours, read-out: MIC
Procedure: as §1

[3] = system: S. aureus CIP 65.25 (MRSA); experiment: MIC microdilution (Table I-1); assay type: cell-based, Staphylococcus aureus; settings: Staphylococcus aureus, read after 18 hours, read-out: MIC
Procedure: as §1

S. aureus CIP 65.6 = experiment: MIC microdilution (Table I-1); assay type: cell-based, Staphylococcus aureus; settings: Staphylococcus aureus, CIP65, read after 18 hours, read-out: MIC
Procedure: as §1

S. aureus SA-1199B = experiment: MIC microdilution (Table I-1); assay type: cell-based, Staphylococcus aureus; settings: Staphylococcus aureus, SA1199B, 18 h
Procedure: as §1

[4] = system: S. epidermidis ATCC 12228; experiment: MIC microdilution (Table I-1); assay type: cell-based, Staphylococcus epidermidis; settings: Staphylococcus epidermidis, ATCC12228, read after 18 hours, read-out: MIC
Procedure: as §1

[5] = system: S. epidermidis CIP 103627; experiment: MIC microdilution (Table I-1); assay type: cell-based, Staphylococcus epidermidis; settings: Staphylococcus epidermidis, CIP103627, read after 18 hours, read-out: MIC
Procedure: as §1

S. epidermidis CIP 81.55 = experiment: MIC microdilution (Table I-1); assay type: cell-based, Staphylococcus epidermidis; settings: Staphylococcus epidermidis, CIP81, read after 18 hours, read-out: MIC
Procedure: as §1

[6] = system: Acinetobacter baumanii ATCC 19606; experiment: MIC microdilution (Table I-1); assay type: cell-based; settings: Acinetobacter baumannii, ATCC19606, read after 18 hours
Procedure: as §1

[7] = system: Bacillus subtilis CIP 5262; experiment: MIC microdilution (Table I-1); assay type: cell-based; settings: CIP5262, read after 18 hours, read-out: MIC
Procedure: as §1

E. faecium CIP 54.32 = experiment: MIC microdilution (Table I-1); assay type: cell-based; settings: Enterococcus faecium, CIP54, read after 18 hours, read-out: MIC
Procedure: as §1

[8] = system: Enterobacter cloacae ATCC 13047; experiment: MIC microdilution (Table I-1); assay type: cell-based; settings: ATCC13047, read after 18 hours
Procedure: as §1

[9] = system: Escherichia coli ATCC 25922; experiment: MIC microdilution (Table I-1); assay type: cell-based; settings: ATCC25922, read after 18 hours
Procedure: as §1

[10] = system: Haemophilus influenzae ATCC 49766; experiment: MIC microdilution (Table I-1); assay type: cell-based; settings: ATCC49766; Haemophilus influenzae ATCC 49766; read after 18 hours; read-out: MIC
Procedure: as §1

[11] = system: Listeria innocua CIP 80.11; experiment: MIC microdilution (Table I-1); assay type: cell-based; settings: CIP80, read after 18 hours, read-out: MIC
Procedure: as §1

[12] = system: Pseudomonas aeruginosa CIP 5933; experiment: MIC microdilution (Table I-1); assay type: cell-based; settings: CIP5933, read after 18 hours
Procedure: as §1

S. aureus ATCC 25923 = experiment: MIC microdilution (Table I-1); assay type: cell-based; settings: Staphylococcus aureus, ATCC25923, read after 18 hours
Procedure: as §1

S. mitis CIP 103335 = experiment: MIC microdilution (Table I-1); assay type: cell-based; settings: Streptococcus mitis, CIP103335, read after 18 hours, read-out: MIC
Procedure: as §1

[13] = system: S. pyogenes (group A) CIP 104226; experiment: MIC microdilution (Table I-1); assay type: cell-based; settings: Streptococcus pyogenes, CIP104226, read after 18 hours, read-out: MIC
Procedure: as §1

[14] = system: Serratia marcescens CIP 103551; experiment: MIC microdilution (Table I-1); assay type: cell-based; settings: CIP103551, read after 18 hours
Procedure: as §1

S. pneumoniae ATCC 6303 = experiment: MIC microdilution (Table I-1); assay type: cell-based, Streptococcus pneumoniae; settings: Streptococcus pneumoniae, ATCC6303, read after 18 hours, read-out: MIC
Procedure: as §1

[15] = system: HCT116 (human colon tumor); experiment: In vitro cytotoxicity; assay type: cell-based; settings: for inhibition at 10 µM: HCT-116, HCT116, 10^−5 M, read-out: % of cellular growth inhibition; for inhibition at 1 µM: HCT-116, HCT116, 10^−6 M, read-out: % of cellular growth inhibition (converted)
Procedure: (§2) In vitro cytotoxicity was assayed on three cell lines—KB (human mouth carcinoma), MCR5 (human lung fibroblast) and HCT116 (human colon tumor). Results are presented in table III as % of cellular growth inhibition in presence of 10^−5 M and 10^−6 M of the tested bis-indolic derivatives.

[16] = system: KB (human mouth carcinoma); experiment: In vitro cytotoxicity; assay type: cell-based; settings: KB; for inhibition at 10 µM: 10^−5 M, read-out: % of cellular growth inhibition; for inhibition at 1 µM: 10^−6 M, read-out: % of cellular growth inhibition (converted)
Procedure: as §2

[17] = system: MRC5 (human lung fibroblast); experiment: In vitro cytotoxicity; assay type: cell-based; settings: for inhibition at 10 µM: MRC5, 10^−5 M, read-out: % of cellular growth inhibition; for inhibition at 1 µM: MRC5, 10^−6 M, read-out: % of cellular growth inhibition (converted)
Procedure: as §2

| SMILES | MIC [1] [µg/mL] | MIC (S. aureus ATCC 29213) [µg/mL] | MIC [2] [µg/mL] | MIC (S. aureus ATCC 6538) [µg/mL] | MIC (S. aureus ATCC 9144) [µg/mL] | MIC (S. aureus CIP 103428) [µg/mL] | MIC [3] [µg/mL] | MIC (S. aureus CIP 65.6) [µg/mL] | MIC (S. aureus SA-1199B) [µg/mL] | MIC [4] [µg/mL] | MIC [5] [µg/mL] | MIC (S. epidermidis CIP 81.55) [µg/mL] | MIC [6] [µg/mL] | MIC [7] [µg/mL] | MIC (E. faecium CIP 54.32) [µg/mL] | MIC [8] [µg/mL] | MIC [9] [µg/mL] | MIC [10] [µg/mL] | MIC [11] [µg/mL] | MIC [12] [µg/mL] | also measured |
| --- | --- | --- | --- | --- | --- | --- | --- | --- | --- | --- | --- | --- | --- | --- | --- | --- | --- | --- | --- | --- | --- |
| O=C(C(=O)N1CCCCC1c1c[nH]c2ccccc12)c1c[nH]c2ccccc12 (stereo not drawn) [Compound 6a, 1-(2-(1H-Indol-3-yl)piperidin-1-yl)-2-(1H-indol-3-yl)ethane-1,2-dione] | > 128 | > 128 | > 128 | > 128 | > 128 | > 128 | > 128 | > 128 | > 128 | > 128 | > 128 | > 128 | > 128 | > 128 | > 128 | > 128 | > 128 | > 128 | > 128 | > 128 | MIC (S. aureus ATCC 25923): > 128 µg/mL; MIC (S. mitis CIP 103335): > 128 µg/mL; MIC [13]: > 128 µg/mL; MIC [14]: > 128 µg/mL; MIC (S. pneumoniae ATCC 6303): > 128 µg/mL; inhibition at 10 µM [15]: 37 ± 6%; inhibition at 1 µM [15]: 0%; inhibition at 10 µM [16]: 20 ± 13%; inhibition at 1 µM [16]: 0%; inhibition at 10 µM [17]: 28 ± 9%; inhibition at 1 µM [17]: 0% |
| O=C(C(=O)N1CCOCC1c1c[nH]c2ccccc12)c1c[nH]c2ccccc12 (stereo not drawn) [Compound 6b, 1-(3-(1H-Indol-3-yl)morpholino)-2-(1H-indol-3-yl)ethane-1,2-dione] | > 128 | > 128 | > 128 | > 128 | > 128 | > 128 | > 128 | > 128 | > 128 | > 128 | > 128 | > 128 | > 128 | > 128 | > 128 | > 128 | > 128 | > 128 | > 128 | > 128 | MIC (S. aureus ATCC 25923): > 128 µg/mL; MIC (S. mitis CIP 103335): > 128 µg/mL; MIC [13]: > 128 µg/mL; MIC [14]: > 128 µg/mL; MIC (S. pneumoniae ATCC 6303): > 128 µg/mL; inhibition at 10 µM [15]: 21 ± 10%; inhibition at 1 µM [15]: 2%; inhibition at 10 µM [16]: 9 ± 4%; inhibition at 1 µM [16]: 0%; inhibition at 10 µM [17]: 15 ± 11%; inhibition at 1 µM [17]: 0% |
| CC(C)(C)OC(=O)N1CCN(C(=O)C(=O)c2c[nH]c3ccccc23)C(c2c[nH]c3ccccc23)C1 (stereo not drawn) [Compound 6c, tert-Butyl 4-(2-(1H-indol-3-yl)-2-oxoacetyl)-3-(1H-indol-3-yl)piperazine-1-carboxylate] | > 128 | > 128 | > 128 | > 128 | > 128 | > 128 | > 128 | > 128 | > 128 | > 128 | > 128 | > 128 | > 128 | > 128 | > 128 | > 128 | > 128 | > 128 | > 128 | > 128 | MIC (S. aureus ATCC 25923): > 128 µg/mL; MIC (S. mitis CIP 103335): > 128 µg/mL; MIC [13]: > 128 µg/mL; MIC [14]: > 128 µg/mL; MIC (S. pneumoniae ATCC 6303): > 128 µg/mL; inhibition at 10 µM [15]: 53 ± 3%; inhibition at 1 µM [15]: 8%; inhibition at 10 µM [16]: 66 ± 8%; inhibition at 1 µM [16]: 0%; inhibition at 10 µM [17]: 6 ± 16%; inhibition at 1 µM [17]: 0% |
